Measurements as given in patent US8426202B2, “Cell culture medium” (Cellca GmbH, priority 2005, dated 2013).
Where “and” joins values, the source holds several entries; their conditions need not be identical. Equal entries are not always repeated.

Key:
[1] = tested on: CHO cell line that expresses an antibody; assay: Batch experiment with the substances according to the invention (Example 1); assay type: cell-based, Chinese hamster; conditions: batch mode, substance 0.5-1 g/l, basal medium glucose 4.7 g/l, glutamine […]
Protocol: Cells were stored in the gas phase of liquid nitrogen. One to two ampoules were thawed in nutrient medium preheated to 37° C. and transferred to spinner bottles, shaking flasks or T-bottles. In the first few days of cultivation the medium was changed, depending on the clone.
Depending on the clone, cells were split either every second day or every third day or after two and three days alternately into new medium, i.e. a portion of the cell suspension was removed from culture and a smaller portion of the cell suspension was reused as inoculum for the next culture. This inoculum was made up with fresh prewarmed nutrient medium. Cells were incubated at 37° C. in an incubator with a CO2 atmosphere. An alternative for incubating cells was cultivation in an incubation chamber at 37° C., in this way cells were held in culture for several passages. A passage means a cultivation time of two to three days. At various points of time, cell suspension was taken from strain maintenance and used as inoculum for experiments. The experiments were carried out in various cultivation systems, for example in spinner bottles, T-bottles, shaking flasks, culture tubes or in controlled bioreactors.
(§1) Feed took place at regular intervals.

[2] = tested on: CHO cell line that expresses an antibody; assay: Fed-batch experiment with the substances according to the invention (Example 2, Table 2); assay type: cell-based, Chinese hamster; design: Viabil.: concentration or dose not given beside the values
From the text: as §1

`O=C(O)CC(O)C(=O)O` (stereo not shown) [Malic acid] was tested, and the Gln ([1]; day 0) was 1.53 mM, the Glucose ([1]; day 0) was 4.69 g/L and the Lactate ([1]; day 0) was 0 g/L. For the same molecule, the NH4 ([1]; day 0) was 1.22 mM, the “Specific Glutamin consumption (Gln/VCD)” value ([1]; day 0) was 1.49 and the “Specific ammonia production (NH4/VCD)” value ([1]; day 0) was 1.18. The “Specific glucose consumption (Gluc/VCD)” value ([1]; day 0) was 4.55, the “Specific lactate production (Lac/VCD)” value ([1]; day 0) was 0.00 and the “Total Cell Density TCD” value ([1]; day 0) was 1.07 E5/ml. For the same molecule, the Viabil. ([1]; day 0) was 96%, the “Viable Cell Density (VCD)” value ([1]; day 0) was 1.03 E5/ml and the Gln ([1]; day 3) was 0.67 mM. For the same molecule, the Glucose ([1]; day 3) was 3.9 g/L, the Lactate ([1]; day 3) was 0.85 g/L and the NH4 ([1]; day 3) was 1.9 mM. The “Specific Glutamin consumption (Gln/VCD)” value ([1]; day 3) was 0.09, the “Specific ammonia production (NH4/VCD)” value ([1]; day 3) was 0.25 and the “Specific glucose consumption (Gluc/VCD)” value ([1]; day 3) was 0.51. For the same molecule, the “Specific lactate production (Lac/VCD)” value ([1]; day 3) was 0.11, the “Total Cell Density TCD” value ([1]; day 3) was 7.8 E5/ml and the Viabil. ([1]; day 3) was 97%. The “Viable Cell Density (VCD)” value ([1]; day 3) was 7.6 E5/ml, the Gln ([1]; day 6) was 0.28 mM and the Glucose ([1]; day 6) was 2.65 g/L. For the same molecule, the Lactate ([1]; day 6) was 1.14 g/L, the NH4 ([1]; day 6) was 2.42 mM and the “Specific Glutamin consumption (Gln/VCD)” value ([1]; day 6) was 0.01. For the same molecule, the “Specific ammonia production (NH4/VCD)” value ([1]; day 6) was 0.06, the “Specific glucose consumption (Gluc/VCD)” value ([1]; day 6) was 0.06 and the “Specific lactate production (Lac/VCD)” value ([1]; day 6) was 0.03. The “Total Cell Density TCD” value ([1]; day 6) was 43.4 E5/ml, the Viabil. ([1]; day 6) was 97% and the “Viable Cell Density (VCD)” value ([1]; day 6) was 42.2 E5/ml. For the same molecule, the Gln ([1]; day 8) was 0.37 mM, the Glucose ([1]; day 8) was 1.76 g/L and the Lactate ([1]; day 8) was 0.94 g/L. The NH4 ([1]; day 8) was 2.4 mM, the “Specific Glutamin consumption (Gln/VCD)” value ([1]; day 8) was 0.02 and the “Specific ammonia production (NH4/VCD)” value ([1]; day 8) was 0.10. The “Specific glucose consumption (Gluc/VCD)” value ([1]; day 8) was 0.08, the “Specific lactate production (Lac/VCD)” value ([1]; day 8) was 0.04 and the “Total Cell Density TCD” value ([1]; day 8) was 26.1 E5/ml. For the same molecule, the Viabil. ([1]; day 8) was 89%, the “Viable Cell Density (VCD)” value ([1]; day 8) was 23.2 E5/ml and the Gln ([1]; day 11) was 0.44 mM. The Glucose ([1]; day 11) was 0.47 g/L, the Lactate ([1]; day 11) was 1.2 g/L and the NH4 ([1]; day 11) was 2.75 mM. The “Specific Glutamin consumption (Gln/VCD)” value ([1]; day 11) was 0.03, the “Specific ammonia production (NH4/VCD)” value ([1]; day 11) was 0.16 and the “Specific glucose consumption (Gluc/VCD)” value ([1]; day 11) was 0.03. For the same molecule, the “Specific lactate production (Lac/VCD)” value ([1]; day 11) was 0.07, the “Total Cell Density TCD” value ([1]; day 11) was 28.5 E5/ml and the Viabil. ([1]; day 11) was 61%. For the same molecule, the “Viable Cell Density (VCD)” value ([1]; day 11) was 17.5 E5/ml, the “Total Cell Density TCD” value ([2]; day 0, fed-batch) was 1.5 E5/ml and the Viabil. ([2]; day 0, fed-batch) was 91%. For the same molecule, the “Viable Cell Density (VCD)” value ([2]; day 0, fed-batch) was 1.37 E5/ml, the “Total Cell Density TCD” value ([2]; day 2, fed-batch) was 3.9 E5/ml and 4.2 E5/ml and the Viabil. ([2]; day 2, fed-batch) was 97% and 98%. For the same molecule, the “Viable Cell Density (VCD)” value ([2]; day 2, fed-batch) was 3.8 E5/ml and 4.1 E5/ml, the “Total Cell Density TCD” value ([2]; day 5, fed-batch) was 14.1 E5/ml and 12.8 E5/ml and the Viabil. ([2]; day 5, fed-batch) was 97% and 98%. The “Viable Cell Density (VCD)” value ([2]; day 5, fed-batch) was 13.7 E5/ml and 12.5 E5/ml, the “Total Cell Density TCD” value ([2]; day 8, fed-batch) was 49.1 E5/ml and 45.3 E5/ml and the Viabil. ([2]; day 8, fed-batch) was 91% and 92%. For the same molecule, the “Viable Cell Density (VCD)” value ([2]; day 8, fed-batch) was 44.9 E5/ml and 41.6 E5/ml.
In the case of `NCCC[C@H](N)C(=O)O` [Ornithine], the Gln ([1]; day 0) is reported as 1.53 mM, the Glucose ([1]; day 0) is reported as 4.69 g/L and the Lactate ([1]; day 0) is reported as 0 g/L. The “Specific Glutamin consumption (Gln/VCD)” value ([1]; day 0) was 1.49, the “Specific ammonia production (NH4/VCD)” value ([1]; day 0) was 1.18 and the “Specific glucose consumption (Gluc/VCD)” value ([1]; day 0) was 4.55. The “Specific lactate production (Lac/VCD)” value ([1]; day 0) was 0.00, the Viabil. ([1]; day 0) was 96% and the Gln ([1]; day 3) was 0.92 mM. For the same molecule, the Glucose ([1]; day 3) was 4.24 g/L, the Lactate ([1]; day 3) was 0.71 g/L and the “Specific Glutamin consumption (Gln/VCD)” value ([1]; day 3) was 0.15. The “Specific ammonia production (NH4/VCD)” value ([1]; day 3) was 0.29, the “Specific glucose consumption (Gluc/VCD)” value ([1]; day 3) was 0.67 and the “Specific lactate production (Lac/VCD)” value ([1]; day 3) was 0.11. It also gave a Viabil. ([1]; day 3) of 97%, a Gln ([1]; day 6) of 0.11 mM and a Glucose ([1]; day 6) of 2.7 g/L. The “Specific Glutamin consumption (Gln/VCD)” value ([1]; day 6) was 0.00, the “Specific ammonia production (NH4/VCD)” value ([1]; day 6) was 0.06 and the “Specific glucose consumption (Gluc/VCD)” value ([1]; day 6) was 0.06. The “Specific lactate production (Lac/VCD)” value ([1]; day 6) was 0.02, the Viabil. ([1]; day 6) was 98% and the Gln ([1]; day 8) was 0.37 mM. The “Specific Glutamin consumption (Gln/VCD)” value ([1]; day 8) was 0.02, the “Specific ammonia production (NH4/VCD)” value ([1]; day 8) was 0.14 and the “Specific glucose consumption (Gluc/VCD)” value ([1]; day 8) was 0.09. For the same molecule, the “Specific lactate production (Lac/VCD)” value ([1]; day 8) was 0.05, the Viabil. ([1]; day 8) was 89% and the Gln ([1]; day 11) was 0.46 mM. The Glucose ([1]; day 11) was 0.53 g/L, the Lactate ([1]; day 11) was 1.26 g/L and the “Specific Glutamin consumption (Gln/VCD)” value ([1]; day 11) was 0.03. The “Specific ammonia production (NH4/VCD)” value ([1]; day 11) was 0.22, the “Specific glucose consumption (Gluc/VCD)” value ([1]; day 11) was 0.04 and the “Specific lactate production (Lac/VCD)” value ([1]; day 11) was 0.09. The Viabil. ([1]; day 11) was 60%, the Viabil. ([2]; day 0, fed-batch) was 91% and the Viabil. ([2]; day 2, fed-batch) was 98% and 97%. It also gave a Viabil. ([2]; day 5, fed-batch) of 96% and a Viabil. ([2]; day 8, fed-batch) of 94%.
With `O=C([O-])/C=C/C(=O)[O-].[Na+].[Na+]` [Sodium fumarate] the Gln ([1]; day 0) was 1.53 mM, the Glucose ([1]; day 0) was 4.69 g/L and the Lactate ([1]; day 0) was 0 g/L. The NH4 ([1]; day 0) was 1.22 mM, the “Specific Glutamin consumption (Gln/VCD)” value ([1]; day 0) was 1.49 and the “Specific ammonia production (NH4/VCD)” value ([1]; day 0) was 1.18. The “Specific glucose consumption (Gluc/VCD)” value ([1]; day 0) was 4.55, the “Specific lactate production (Lac/VCD)” value ([1]; day 0) was 0.00 and the “Total Cell Density TCD” value ([1]; day 0) was 1.07 E5/ml. For the same molecule, the Viabil. ([1]; day 0) was 96%, the “Viable Cell Density (VCD)” value ([1]; day 0) was 1.03 E5/ml and the Gln ([1]; day 3) was 0.72 mM. The Glucose ([1]; day 3) was 3.98 g/L, the Lactate ([1]; day 3) was 0.85 g/L and the NH4 ([1]; day 3) was 1.84 mM. For the same molecule, the “Specific Glutamin consumption (Gln/VCD)” value ([1]; day 3) was 0.10, the “Specific ammonia production (NH4/VCD)” value ([1]; day 3) was 0.26 and the “Specific glucose consumption (Gluc/VCD)” value ([1]; day 3) was 0.57. For the same molecule, the “Specific lactate production (Lac/VCD)” value ([1]; day 3) was 0.12, the “Total Cell Density TCD” value ([1]; day 3) was 7.1 E5/ml and the Viabil. ([1]; day 3) was 99%. The “Viable Cell Density (VCD)” value ([1]; day 3) was 7 E5/ml, the Gln ([1]; day 6) was 0.24 mM and the Glucose ([1]; day 6) was 2.61 g/L. For the same molecule, the Lactate ([1]; day 6) was 1.19 g/L, the NH4 ([1]; day 6) was 2.49 mM and the “Specific Glutamin consumption (Gln/VCD)” value ([1]; day 6) was 0.01. The “Specific ammonia production (NH4/VCD)” value ([1]; day 6) was 0.06, the “Specific glucose consumption (Gluc/VCD)” value ([1]; day 6) was 0.06 and the “Specific lactate production (Lac/VCD)” value ([1]; day 6) was 0.03. For the same molecule, the “Total Cell Density TCD” value ([1]; day 6) was 41.5 E5/ml, the Viabil. ([1]; day 6) was 98% and the “Viable Cell Density (VCD)” value ([1]; day 6) was 40.6 E5/ml. The Gln ([1]; day 8) was 0.37 mM, the Glucose ([1]; day 8) was 1.68 g/L and the Lactate ([1]; day 8) was 1.08 g/L. The NH4 ([1]; day 8) was 2.58 mM, the “Specific Glutamin consumption (Gln/VCD)” value ([1]; day 8) was 0.02 and the “Specific ammonia production (NH4/VCD)” value ([1]; day 8) was 0.14. For the same molecule, the “Specific glucose consumption (Gluc/VCD)” value ([1]; day 8) was 0.09, the “Specific lactate production (Lac/VCD)” value ([1]; day 8) was 0.06 and the “Total Cell Density TCD” value ([1]; day 8) was 22.3 E5/ml. For the same molecule, the Viabil. ([1]; day 8) was 86%, the “Viable Cell Density (VCD)” value ([1]; day 8) was 19.1 E5/ml and the Gln ([1]; day 11) was 0.47 mM. The Glucose ([1]; day 11) was 0.46 g/L, the Lactate ([1]; day 11) was 1.46 g/L and the NH4 ([1]; day 11) was 3.06 mM. The “Specific Glutamin consumption (Gln/VCD)” value ([1]; day 11) was 0.03, the “Specific ammonia production (NH4/VCD)” value ([1]; day 11) was 0.21 and the “Specific glucose consumption (Gluc/VCD)” value ([1]; day 11) was 0.03. For the same molecule, the “Specific lactate production (Lac/VCD)” value ([1]; day 11) was 0.10, the “Total Cell Density TCD” value ([1]; day 11) was 26.2 E5/ml and the Viabil. ([1]; day 11) was 55%. For the same molecule, the “Viable Cell Density (VCD)” value ([1]; day 11) was 14.3 E5/ml, the “Total Cell Density TCD” value ([2]; day 0, fed-batch) was 1.5 E5/ml and the Viabil. ([2]; day 0, fed-batch) was 91%. For the same molecule, the “Viable Cell Density (VCD)” value ([2]; day 0, fed-batch) was 1.37 E5/ml, the “Total Cell Density TCD” value ([2]; day 2, fed-batch) was 3.6 E5/ml and the Viabil. ([2]; day 2, fed-batch) was 97%. The “Viable Cell Density (VCD)” value ([2]; day 2, fed-batch) was 3.5 E5/ml, the “Total Cell Density TCD” value ([2]; day 5, fed-batch) was 13.9 E5/ml and 13.2 E5/ml and the Viabil. ([2]; day 5, fed-batch) was 96% and 97%. For the same molecule, the “Viable Cell Density (VCD)” value ([2]; day 5, fed-batch) was 13.4 E5/ml and 12.8 E5/ml, the “Total Cell Density TCD” value ([2]; day 8, fed-batch) was 43.9 E5/ml and 43.8 E5/ml and the Viabil. ([2]; day 8, fed-batch) was 92%. The “Viable Cell Density (VCD)” value ([2]; day 8, fed-batch) was 40.3 E5/ml and 40.2 E5/ml.
